# Columns and labels:
# [1] = tested on: C. jejuni; assay: C. jejuni induced colitis, histological intestinal inflammation score; type: in vivo, mice; conditions: AS252424 10 mg/kg i.p. daily, 6 days, vs vehicle
# Text: All animal protocols were approved by the Institutional Animal Care and Use Committee of the University of North Carolina at Chapel Hill (Chapel Hill, N.C., United States of America). Germ-free 8 to 12 week old II10^−/−; NF-κBEGFP (129/SvEv; C57BL/6 mixed background) mice were transferred from germ-free isolators and immediately gavaged with 10^9 C. jejuni cfu/mouse (strain 81-176 (Korlath et al., 1985)). Mice were then housed under Specific Pathogen-Free (SPF) conditions and sacrificed at 5 or 12 days. […] Intestinal inflammation was scored by evaluating the degree of lamina propria immune cell infiltration, goblet cell depletion, architectural distortion, as well as crypt hyperplasia, ulceration, and abscesses using a score from 0-4. […] Cecal and colonic inflammation induced by S. typhimurium was evaluated using a score from 0-13 as described. […]
# All animal protocols were approved by the Institutional Animal Care and Use Committee of the University of North Carolina at Chapel Hill (Chapel Hill, N.C., United States of America). […] Histological images were acquired using a DP71 camera and DP Controller 3.1.1.276 (Olympus, Center Valley, Pa., United States of America), and intestinal inflammation was scored on a scale of 0 to 4 as described before (Lippert et al., 2009; Sun et al., 2012). […]
# [2] = tested on: C. jejuni; assay: FISH for C. jejuni in colon; type: in vivo; conditions: AS252424-treated mice
# Description: Cy3-tagged 5′[…]3′ (SEQ ID NO: 1; Poppert et al., 2008) was used to probe the presence of C. jejuni. Deparaffinized, formalin-fixed 5 μm thick sections were incubated for 15 minutes in lysozyme (300,000 Units/ml lysozyme; Sigma-Aldrich, St. Louis, Mo., United States of America) buffer (25 mM Tris pH 7.5, 10 mM EDTA, 585 mM sucrose, and 0.3 mg/ml sodium taurocholate) at room temperature and hybridized overnight at 46° C. in hybridization chambers with the oligonucleotide probe (final concentration of 5 ng/μl in a solution of 30 percent formamide, 0.9 M sodium chloride, 20 mM Tris pH 7.5, and 0.01% sodium dodecyl sulfate). Tissue sections were washed for 20 minutes at 48° C. in washing buffer (0.9 M sodium chloride, 20 mM Tris pH 7.5) and once in distilled water for 10 seconds, dried at 46° C., mounted with DAPI mount media, and imaged using a Zeiss (Carl Zeiss, Thornwood, N.Y., United States of America) LSM710 Spectral Confocal Laser Scanning Microscope system with ZEN 2008 software. Acquired images were analyzed using BioimageXD. (Kankaanpaa et al., 2006). […]
# Cy3-tagged 5′[…]3′ (SEQ ID NO: 1) was used to probe the presence of C. jejuni in the intestinal tissue sections as previously described (Sun et al., 2012). […] Acquired images were analyzed using BioimageXD (Kankaanpaa et al., 2006).
# [3] = tested on: CMT-93 cells; assay: C. jejuni epithelial cell translocation assay (transwell); type: cell-based, Murine; conditions: 10 μM AS252424, transwell, up to 5 hrs
# Description: Murine rectal carcinoma epithelial CMT-93 cells (1×10^6) were plated onto 12-well Transwells (Corning Inc., Corning, N.Y., United States of America) in DMEM media containing 10% FBS and 2 mM L-glutamine. Upon reached confluency (monolayer), the medium was changed to 1% FBS medium and 10^8 C. jejuni was added to the upper inserts in presence or absence of 10 μM AS252424. Aliquot of medium from bottom wells was collected every hr for 5 hrs, serially diluted and cultured on Remel (Remel, Thermo Scientific, Hampton, N.H., United States of America) plates as described before (Sun et al., 2012). Translocated C. jejuni was reported as CFU/ml at each time point.
smiles,measurement,setting,value
O=C1NC(=O)/C(=C/c2ccc(-c3ccc(F)cc3O)o2)S1 [AS252424],C. jejuni-induced colitis,[1],reduced
same,"C. jejuni in colon (FISH, confocal)",[2],barely detectable
same,C. jejuni translocation across CMT-93 monolayer,[3],did not prevent

# From patent US20130225629A1, “TARGETING PI3K/MTOR SIGNALLING AND NEUTROPHIL RECRUITMENT FOR TREATMENT OF ENTERITIS” (THE UNIVERSITY OF NORTH CAROLINA AT CHAPEL HILL, priority 2012, published 2013)
